COC(C)(C)C [2-methoxy-2-methylpropane]
Liquid, Brillouin light scattering
Settings | speed of sound [m/s]
388.22 K, 1000 kPa | 646.4
388.24 K, 2500 kPa | 670.7
388.24 K, 10000 kPa | 768.1
388.25 K, 8500 kPa | 751.1
393.11 K, 5500 kPa | 691.8
393.13 K, 1000 kPa | 619
393.13 K, 4000 kPa | 669.1
393.13 K, 8500 kPa | 736.3
393.16 K, 2500 kPa | 643.2
393.22 K, 7000 kPa | 714.5
393.22 K, 10000 kPa | 753.4
398.1 K, 5500 kPa | 671.4
398.11 K, 1000 kPa | 594.9
398.18 K, 2500 kPa | 624.4
398.18 K, 4000 kPa | 647.1
398.2 K, 8500 kPa | 715.9
398.24 K, 10000 kPa | 733.5
398.25 K, 7000 kPa | 692.8
403.07 K, 7000 kPa | 672.1
403.11 K, 2500 kPa | 602.6
403.12 K, 1000 kPa | 574.7
403.12 K, 4000 kPa | 627.2
403.14 K, 5500 kPa | 649.2
403.14 K, 10000 kPa | 716.1
403.16 K, 8500 kPa | 697.5
408.09 K, 7000 kPa | 657.5
408.16 K, 4000 kPa | 605.6
408.19 K, 5500 kPa | 631.8
408.21 K, 8500 kPa | 679.5
408.23 K, 2500 kPa | 576.4
408.24 K, 10000 kPa | 697.8
413.06 K, 10000 kPa | 682.3
413.08 K, 4000 kPa | 585.4
413.14 K, 8500 kPa | 661.5
413.16 K, 5500 kPa | 612.9
413.19 K, 2500 kPa | 557.9
413.24 K, 7000 kPa | 638.1
418.07 K, 4000 kPa | 565.2
418.07 K, 7000 kPa | 617.5
418.08 K, 10000 kPa | 661.5
418.11 K, 8500 kPa | 639.1
418.19 K, 2500 kPa | 535.7
418.23 K, 5500 kPa | 588.6
423.05 K, 7000 kPa | 595.1
423.06 K, 2500 kPa | 511.7
423.06 K, 4000 kPa | 541.9
423.11 K, 8500 kPa | 624.1
423.12 K, 10000 kPa | 647.8
423.19 K, 5500 kPa | 571.4
428.11 K, 2500 kPa | 485.7
428.14 K, 5500 kPa | 549.7
428.15 K, 7000 kPa | 575.1
428.18 K, 4000 kPa | 520.9
428.19 K, 8500 kPa | 605.5
428.2 K, 10000 kPa | 625.5
433.05 K, 2500 kPa | 463.5
433.05 K, 7000 kPa | 560.1
433.08 K, 10000 kPa | 610.8
433.18 K, 4000 kPa | 498.5
433.22 K, 5500 kPa | 530.9
433.22 K, 8500 kPa | 586.5
438.11 K, 2500 kPa | 443
438.13 K, 7000 kPa | 540.4
438.13 K, 10000 kPa | 590.9
438.14 K, 5500 kPa | 507.9
438.16 K, 8500 kPa | 569
438.24 K, 4000 kPa | 477.2
443.06 K, 4000 kPa | 454.3
443.08 K, 5500 kPa | 487.7
443.12 K, 10000 kPa | 575
443.14 K, 8500 kPa | 548.7
443.18 K, 2500 kPa | 418.1
443.23 K, 7000 kPa | 519.9
448.06 K, 2500 kPa | 394.3
448.07 K, 5500 kPa | 467.5
448.16 K, 4000 kPa | 435.5
448.22 K, 7000 kPa | 500.2
448.23 K, 8500 kPa | 529.7
448.23 K, 10000 kPa | 557.1
453.07 K, 5500 kPa | 448.8
453.18 K, 4000 kPa | 411.5
453.18 K, 10000 kPa | 544
453.2 K, 2500 kPa | 372.4
453.21 K, 8500 kPa | 515.2
453.24 K, 7000 kPa | 483.8
458.06 K, 4000 kPa | 389.5
458.08 K, 7000 kPa | 464.6
458.12 K, 10000 kPa | 524.8
458.18 K, 2500 kPa | 350.8
458.22 K, 8500 kPa | 497.9
458.24 K, 5500 kPa | 426.1
463.1 K, 10000 kPa | 507.9
463.13 K, 2500 kPa | 326.7
463.14 K, 8500 kPa | 480.9
463.16 K, 5500 kPa | 409.6
463.23 K, 4000 kPa | 368.2
463.25 K, 7000 kPa | 445.2
468.06 K, 7000 kPa | 427.3
468.1 K, 10000 kPa | 491.9
468.15 K, 8500 kPa | 459.5
468.19 K, 4000 kPa | 347.2
468.22 K, 5500 kPa | 389.7
473.07 K, 4000 kPa | 324.5
473.11 K, 10000 kPa | 479
473.12 K, 8500 kPa | 443.1
473.15 K, 7000 kPa | 408.5
473.22 K, 5500 kPa | 366

Settings | speed of sound [m/s]
393.16 K, Liquid, Brillouin Light Scattering | 609.1
398.07 K, Gas, Brillouin light scattering | 170
398.11 K, Liquid, Brillouin Light Scattering | 580.1
403.24 K, Liquid, Brillouin Light Scattering | 558
408.22 K, Gas, Brillouin light scattering | 167.8
408.23 K, Liquid, Brillouin Light Scattering | 537.6
413.2 K, Liquid, Brillouin Light Scattering | 515.8
418.16 K, Gas, Brillouin light scattering | 164.7
418.24 K, Liquid, Brillouin Light Scattering | 494.4
423.15 K, Liquid, Brillouin Light Scattering | 476
428.21 K, Gas, Brillouin light scattering | 161.2
428.24 K, Liquid, Brillouin Light Scattering | 453.8
433.05 K, Liquid, Brillouin Light Scattering | 430.3
438.17 K, Gas, Brillouin light scattering | 155.3
438.19 K, Liquid, Brillouin Light Scattering | 405.8
443.09 K, Liquid, Brillouin Light Scattering | 387.3
448.13 K, Gas, Brillouin light scattering | 148.4
448.23 K, Liquid, Brillouin Light Scattering | 360.3
453.1 K, Liquid, Brillouin Light Scattering | 339.5
458.19 K, Liquid, Brillouin Light Scattering | 313.6
458.29 K, Gas, Brillouin light scattering | 139.8
463.17 K, Gas, Brillouin light scattering | 135.7
463.23 K, Liquid, Brillouin Light Scattering | 287.1
468.18 K, Liquid, Brillouin Light Scattering | 265
468.26 K, Gas, Brillouin light scattering | 130.6
473.15 K, Gas, Brillouin light scattering | 124.5
473.17 K, Liquid, Brillouin Light Scattering | 236.5
478.08 K, Gas, Brillouin light scattering | 119
478.08 K, Liquid, Brillouin Light Scattering | 206.1
483.2 K, Liquid, Brillouin Light Scattering | 177.7
483.29 K, Gas, Brillouin light scattering | 111.8
488.11 K, Liquid, Brillouin Light Scattering | 142.8
488.15 K, Gas, Brillouin light scattering | 104.9
493.06 K, Liquid, Brillouin Light Scattering | 103.7
493.15 K, Gas, Brillouin light scattering | 96.9
